Source: patent US12024707B2, “Methods and compositions for modulating lncRNAs and methods of treatment based on lncRNA expression” (Washington University, priority 2020, dated 2024)
Structures can show the parent of a compound that is named as a salt.

Tested on: HT29 RAMS11 overexpressing cells
Assay: High-throughput viability assay (resazurin), 119 FDA-approved anticancer drugs, RAMS11 overexpressing cells (Clone1, Clone2)
Conditions: 72 h, vs empty vector control
[1] = OE1 (RAMS11 overexpression clone 1), 0.1 uM drug
[2] = OE1 (RAMS11 overexpression clone 1), 1 uM drug
[3] = OE1 (RAMS11 overexpression clone 1), 10 uM drug
[4] = OE2 (RAMS11 overexpression clone 2), 0.1 uM drug
[5] = OE2 (RAMS11 overexpression clone 2), 1 uM drug
[6] = OE2 (RAMS11 overexpression clone 2), 10 uM drug

Description: The FDA-approved anticancer panel included multiple classes of drugs such as kinase inhibitors, alkylating agents, antineoplastic antibiotics, anthracycline antibiotics, and antineoplastic agents (topoisomerase inhibitors). The HT29 RAMS11 overexpressing and control cells were treated for 72 h to assess cellular viability upon drug treatment (FIG. 14a and TABLE 3). […] Due to 5-FU commonly used to treat mCRC, we further determined if RAMS11 expression altered drug sensitivity in treated cells.
Drugs were diluted in DMSO to 1 mM and the well assignments were rearranged so drugs were confined to the inner 60 wells of 96-well plates. […] The next day serial diluted drug was added to pre-seeded plates in media containing 1% DMSO vehicle, using a Robbins Hydra 96 micro dispenser. Two 96-well plates of cells were used as vehicle controls. The plates were incubated for 3 days. Percent viability was scored by incubating cells for 3 h with resazurin sodium (0.023 mg/mL, Sigma R7017). The reaction was stopped by the addition of SDS (1% final concentration). Fluorescence Ex/Em 540/590 was read in a Biotek Synergy H1 plate reader (Winooski, VT). The fluorescence values for the vehicle plates were averaged and percent viability was determined by the formula: Percent viability=(average vehicle−value)/(average vehicle−average resazurin in media blank)×100. […] Assays were repeated more than three times.

Row | Structure (SMILES) | Viability Fold Change [1] | Viability Fold Change [2] | Viability Fold Change [3] | Viability Fold Change [4] | Viability Fold Change [5] | Viability Fold Change [6]
1 | C[C@]12CC[C@H](O)CC1=CC[C@@H]1[C@@H]2CC[C@]2(C)C(c3cccnc3)=CC[C@@H]12 [Abiraterone] | 0.9503 | 0.9997 | 1.001 | 1.008 | 1.043 | 0.9879
2 | CN(C)C/C=C/C(=O)Nc1cc2c(Nc3ccc(F)c(Cl)c3)ncnc2cc1O[C@H]1CCOC1 [Afatinib] | 1.034 | 1.121 | 1.39 | 1.147 | 1.156 | 1.398
3 | Oc1ncnc2[nH]ncc12 [Allopurinol] | 0.8682 | 0.9042 | 0.776 | 0.9002 | 0.8635 | 0.8648
4 | CN(C)c1nc(N(C)C)nc(N(C)C)n1 [Altretamine] | 0.949 | 0.9105 | 0.845 | 0.9299 | 0.9672 | 0.9171
5 | NCCCNCCSP(=O)(O)O [Amifostine] | 0.9539 | 1.024 | 1.063 | 0.99 | 1.063 | 1.167
6 | NCC(=O)CCC(=O)O [Aminolevulinic Acid] | 0.8803 | 0.9655 | 1.022 | 0.914 | 1.058 | 0.9613
7 | CC(C)(C#N)c1cc(Cn2cncn2)cc(C(C)(C)C#N)c1 [Anastrozole] | 0.876 | 0.9957 | 0.9385 | 0.9749 | 1.001 | 0.9255
8 | CNC(=O)c1ccccc1Sc1ccc2c(/C=C/c3ccccn3)n[nH]c2c1 [Axitinib] | 0.9514 | 0.9382 | 0.8636 | 0.911 | 1.101 | 0.8143
9 | Nc1ncn([C@@H]2O[C@H](CO)[C@@H](O)[C@H]2O)c(=O)n1 [Azacitidine] | 1.05 | 1.098 | 0.9367 | 1.089 | 1.054 | 0.9049
10 | O=C(/C=C/c1cccc(S(=O)(=O)Nc2ccccc2)c1)NO [Belinostat] | 0.9138 | 1.209 | 1.035 | 1.073 | 1.192 | 1.006
11 | Cn1c(CCCC(=O)O)nc2cc(N(CCCl)CCCl)ccc21 [Bendamustine hydrochloride] | 0.8888 | 0.9725 | 0.935 | 1.01 | 0.9036 | 0.899
12 | CC(C)C[C@H](NC(=O)[C@H](Cc1ccccc1)NC(=O)c1cnccn1)B(O)O [Bortezomib] | 0.6015 | 1.059 | 1.152 | 0.5035 | 0.8063 | 0.9968
13 | COc1cc(Nc2c(C#N)cnc3cc(OCCCN4CCN(C)CC4)c(OC)cc23)c(Cl)cc1Cl [Bosutinib] | 1.048 | 1.013 | 1.477 | 1.022 | 1.04 | 1.608
